Measured values published in publication PMC11435248, “Auraptene Boosts the Efficacy of the Tamoxifen Metabolites Endoxifen and 4-OH-Tamoxifen in a Chemoresistant ER+ Breast Cancer Model” (Pharmaceutics, 2024).

Molecular target: T1, eIF4A1 (Homo sapiens, UniProt P60842)
T1 construct: recombinant eIF4A1 from pET19bm, 10-histidine tract at the N-terminal with Prescission Protease site, expressed in E. coli Rosetta Star
Assay: fluorescence quenching of purified recombinant eIF4A ([…] auraptene)
Assay type: binding

T1 sequence (P60842 2-406): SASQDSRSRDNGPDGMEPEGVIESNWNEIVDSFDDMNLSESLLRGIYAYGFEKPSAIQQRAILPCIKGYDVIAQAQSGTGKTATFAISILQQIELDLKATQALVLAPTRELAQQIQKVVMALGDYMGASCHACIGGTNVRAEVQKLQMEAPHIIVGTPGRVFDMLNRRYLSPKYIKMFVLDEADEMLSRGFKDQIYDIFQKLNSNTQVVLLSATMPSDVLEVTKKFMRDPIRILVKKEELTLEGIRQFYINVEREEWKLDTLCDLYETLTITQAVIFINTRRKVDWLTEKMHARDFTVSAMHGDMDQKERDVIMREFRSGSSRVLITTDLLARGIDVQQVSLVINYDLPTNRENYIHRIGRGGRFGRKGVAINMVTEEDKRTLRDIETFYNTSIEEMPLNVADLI

CC(C)=CCC/C(C)=C/COc1ccc2ccc(=O)oc2c1 [Aur, auraptene]
fluorescence quenching of purified recombinant eIF4A (50 and 100 μM auraptene): a reduction in the emission intensity was observed, resulting from a quenching phenomenon, suggesting that auraptene binds with the eIF4A
